Calls of active or inactive are those of the source.
Legend:
[1] = molecular target: Phosphoethanolamine/phosphocholine phosphatase (Homo sapiens, UniProt Q8TCT1); assay: SAR assay for compounds that inhibit PHOSPHO1. [Related pubchem assays (depositor defined):AID1545, AID1565, AID1574]
[2] = molecular target: T1, Alkaline phosphatase, tissue-nonspecific isozyme (Homo sapiens, UniProt P05186); assay: activation of tissue-nonspecific alkaline phosphatase – biochemical, TNAP isozyme, human IAP uHTS hits, selectivity assay for human IAP activator project, dose response (AID 488886); format: functional;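 also: potency of compounds raising TNAP activity as a selectivity check on IAP activators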
T1 sequence (P05186 whole entry): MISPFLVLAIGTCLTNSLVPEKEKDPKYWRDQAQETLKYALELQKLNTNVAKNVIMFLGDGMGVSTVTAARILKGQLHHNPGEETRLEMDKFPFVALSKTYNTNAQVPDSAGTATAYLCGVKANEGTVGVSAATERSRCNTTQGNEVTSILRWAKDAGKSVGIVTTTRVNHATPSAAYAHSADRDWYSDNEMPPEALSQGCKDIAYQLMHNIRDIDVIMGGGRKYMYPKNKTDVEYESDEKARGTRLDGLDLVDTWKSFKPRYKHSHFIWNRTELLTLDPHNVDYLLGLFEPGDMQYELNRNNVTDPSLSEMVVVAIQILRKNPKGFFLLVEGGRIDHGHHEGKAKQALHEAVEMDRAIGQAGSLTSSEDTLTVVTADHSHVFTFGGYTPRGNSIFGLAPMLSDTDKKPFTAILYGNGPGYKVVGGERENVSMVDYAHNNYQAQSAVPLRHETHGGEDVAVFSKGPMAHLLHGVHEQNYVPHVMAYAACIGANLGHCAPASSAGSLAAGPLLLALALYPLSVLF

[3] = molecular target: Intestinal-type alkaline phosphatase (Mus musculus, UniProt P24822); assay: PubChem AID 488875; format: functional
Chain of Intestinal-type alkaline phosphatase (Mus musculus, UniProt P24822) (P24822 whole entry): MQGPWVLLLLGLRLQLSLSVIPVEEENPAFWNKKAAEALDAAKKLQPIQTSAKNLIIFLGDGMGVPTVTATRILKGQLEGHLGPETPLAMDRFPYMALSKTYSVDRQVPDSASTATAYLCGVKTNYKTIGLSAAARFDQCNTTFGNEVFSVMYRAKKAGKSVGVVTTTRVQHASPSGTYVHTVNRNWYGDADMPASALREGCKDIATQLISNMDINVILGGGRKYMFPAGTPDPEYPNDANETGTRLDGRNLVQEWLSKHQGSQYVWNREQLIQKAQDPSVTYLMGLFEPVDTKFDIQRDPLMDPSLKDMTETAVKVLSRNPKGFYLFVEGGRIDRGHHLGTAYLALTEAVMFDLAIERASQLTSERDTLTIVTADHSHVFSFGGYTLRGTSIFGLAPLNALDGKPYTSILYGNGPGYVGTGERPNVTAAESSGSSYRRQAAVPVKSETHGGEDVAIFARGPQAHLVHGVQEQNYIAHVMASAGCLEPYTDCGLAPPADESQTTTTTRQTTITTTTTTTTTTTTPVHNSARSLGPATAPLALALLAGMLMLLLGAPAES

[4] = molecular target: T2, Intestinal-type alkaline phosphatase (Homo sapiens, UniProt P09923); assay: human intestinal alkaline phosphatase activators, dose response, biochemical, luminescence, uHTS hits (AID 463120); format: functional
T2 sequence (P09923 whole entry): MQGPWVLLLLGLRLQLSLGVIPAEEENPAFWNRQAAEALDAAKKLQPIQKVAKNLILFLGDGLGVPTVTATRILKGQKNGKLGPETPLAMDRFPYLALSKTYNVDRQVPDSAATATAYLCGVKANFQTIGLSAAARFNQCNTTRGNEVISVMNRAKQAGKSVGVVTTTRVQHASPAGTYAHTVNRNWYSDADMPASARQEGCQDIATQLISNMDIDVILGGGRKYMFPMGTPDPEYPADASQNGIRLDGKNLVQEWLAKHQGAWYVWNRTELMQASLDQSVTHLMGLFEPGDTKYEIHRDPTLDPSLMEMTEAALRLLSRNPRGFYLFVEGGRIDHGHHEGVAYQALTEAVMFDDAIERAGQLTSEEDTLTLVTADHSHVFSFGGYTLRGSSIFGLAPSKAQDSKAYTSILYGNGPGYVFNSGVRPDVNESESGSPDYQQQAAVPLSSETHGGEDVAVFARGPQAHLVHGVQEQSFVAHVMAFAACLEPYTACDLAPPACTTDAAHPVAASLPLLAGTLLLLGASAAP

[5] = molecular target: T2, Intestinal-type alkaline phosphatase; assay: activation of human intestinal alkaline phosphatase – biochemical, luminescent, uHTS hits, set 2, dose response (AID 488817); format: functional;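 also: potency of activators that raise enzyme activity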
[6] = Counterscreen for activators of the function of SWI/SNF related, matrix associated, actin dependent regulator of chromatin, subfamily a, member 2 (SMARCA2, BRM): Luminescence-based cell-based high throughput dose response assay to identify non-selective compounds using the VP16 reporter assay.; format: functional
[7] = molecular target: T2, Intestinal-type alkaline phosphatase; assay: Dose Response confirmation of uHTS hits from a small molecule inhibitors of human intestinal alkaline phosphatase via a luminescent assay. [Related pubchem assays (depositor defined):AID2544, AID2574]; format: functional
[8] = molecular target: T3, Fructose-bisphosphate aldolase (Mycobacterium tuberculosis, UniProt P9WQA3); assay: Fluorescence-based biochemical high throughput dose response assay for inhibitors of the fructose-bisphosphate aldolase (FBA) of M. tuberculosis.; format: functional
T3 sequence (P9WQA3 whole entry): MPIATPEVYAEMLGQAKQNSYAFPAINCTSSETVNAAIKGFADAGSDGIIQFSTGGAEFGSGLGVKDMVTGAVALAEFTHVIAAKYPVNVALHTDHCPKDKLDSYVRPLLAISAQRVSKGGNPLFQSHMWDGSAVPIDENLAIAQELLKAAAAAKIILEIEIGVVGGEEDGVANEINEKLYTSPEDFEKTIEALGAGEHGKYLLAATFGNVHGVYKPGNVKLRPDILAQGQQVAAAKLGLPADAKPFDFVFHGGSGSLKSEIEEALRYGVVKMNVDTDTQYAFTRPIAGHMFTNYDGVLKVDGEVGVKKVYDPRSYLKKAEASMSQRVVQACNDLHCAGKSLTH

[9] = molecular target: SWI/SNF-related matrix-associated actin-dependent regulator of chromatin subfamily A member 2 (Homo sapiens, UniProt P51531); assay: Luminescence-based cell-based high throughput dose response assay to identify activators of the function of SWI/SNF related, matrix associated, actin dependent regulator of chromatin, subfamily a, member 2 (SMARCA2, BRM).; format: functional
Chain of SWI/SNF-related matrix-associated actin-dependent regulator of chromatin subfamily A member 2 (P51531 whole entry): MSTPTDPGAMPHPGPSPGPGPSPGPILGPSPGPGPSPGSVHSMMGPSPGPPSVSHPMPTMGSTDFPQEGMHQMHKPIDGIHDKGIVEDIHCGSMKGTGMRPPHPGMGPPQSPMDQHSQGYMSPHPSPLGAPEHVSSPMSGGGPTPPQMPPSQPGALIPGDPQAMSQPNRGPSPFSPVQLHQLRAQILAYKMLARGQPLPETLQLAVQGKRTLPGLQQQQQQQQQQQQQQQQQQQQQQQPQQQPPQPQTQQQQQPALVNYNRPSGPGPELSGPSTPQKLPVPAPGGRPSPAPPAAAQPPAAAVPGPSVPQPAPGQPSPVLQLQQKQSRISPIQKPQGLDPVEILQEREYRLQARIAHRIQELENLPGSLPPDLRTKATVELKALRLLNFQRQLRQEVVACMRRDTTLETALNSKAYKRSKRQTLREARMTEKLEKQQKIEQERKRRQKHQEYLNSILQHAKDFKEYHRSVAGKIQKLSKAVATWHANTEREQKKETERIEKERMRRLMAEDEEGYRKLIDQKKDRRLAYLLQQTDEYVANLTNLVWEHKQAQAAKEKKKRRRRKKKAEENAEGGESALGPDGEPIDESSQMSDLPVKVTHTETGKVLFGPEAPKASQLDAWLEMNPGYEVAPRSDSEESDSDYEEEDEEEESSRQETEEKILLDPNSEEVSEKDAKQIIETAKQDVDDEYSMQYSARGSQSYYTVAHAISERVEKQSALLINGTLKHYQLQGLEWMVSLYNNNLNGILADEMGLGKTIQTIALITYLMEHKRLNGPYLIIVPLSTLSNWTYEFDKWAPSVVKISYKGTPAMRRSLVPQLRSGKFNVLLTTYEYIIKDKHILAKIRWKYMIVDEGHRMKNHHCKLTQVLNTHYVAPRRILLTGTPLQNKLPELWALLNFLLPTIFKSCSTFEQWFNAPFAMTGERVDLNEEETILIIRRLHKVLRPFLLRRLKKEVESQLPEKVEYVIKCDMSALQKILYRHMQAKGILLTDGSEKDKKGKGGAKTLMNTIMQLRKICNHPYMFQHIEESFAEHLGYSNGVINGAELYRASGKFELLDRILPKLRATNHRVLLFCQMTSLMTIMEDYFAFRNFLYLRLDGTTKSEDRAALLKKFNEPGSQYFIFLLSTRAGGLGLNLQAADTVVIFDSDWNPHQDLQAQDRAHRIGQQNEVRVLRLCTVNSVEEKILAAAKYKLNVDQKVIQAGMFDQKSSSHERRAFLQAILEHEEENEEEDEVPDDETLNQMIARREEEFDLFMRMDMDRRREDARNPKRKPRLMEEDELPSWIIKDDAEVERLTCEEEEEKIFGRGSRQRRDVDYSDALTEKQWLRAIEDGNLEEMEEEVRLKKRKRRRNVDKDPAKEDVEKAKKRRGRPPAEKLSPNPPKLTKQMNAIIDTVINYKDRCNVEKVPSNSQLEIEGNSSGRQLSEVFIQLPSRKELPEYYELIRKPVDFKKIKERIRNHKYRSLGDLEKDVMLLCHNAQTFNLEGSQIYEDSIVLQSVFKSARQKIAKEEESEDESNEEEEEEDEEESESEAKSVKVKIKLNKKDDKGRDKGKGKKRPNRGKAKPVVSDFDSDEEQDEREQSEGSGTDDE

Chain of Phosphoethanolamine/phosphocholine phosphatase (Q8TCT1 whole entry): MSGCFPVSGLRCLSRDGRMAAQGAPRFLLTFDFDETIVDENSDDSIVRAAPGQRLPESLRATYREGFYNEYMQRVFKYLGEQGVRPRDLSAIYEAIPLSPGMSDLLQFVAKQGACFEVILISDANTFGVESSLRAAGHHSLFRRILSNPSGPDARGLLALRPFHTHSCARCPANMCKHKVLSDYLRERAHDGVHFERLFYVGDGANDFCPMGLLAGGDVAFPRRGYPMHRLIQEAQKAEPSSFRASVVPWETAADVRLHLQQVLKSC

SMILES: COc1ccc(-c2nc(N)s[n+]2-c2ccccc2)cc1
- IC50 [1]: 1.25 µM (inactive)

SMILES: Cc1cc(C(=O)NC2CC(C)(C)Cc3c2cnn3-c2ccccc2)[nH]n1 (centres undefined)
- EC50 [2]: 48.2 µM (active)
- EC50 [3]: 55.1 µM (active)
- EC50 [4]: 70.7 µM (active)
- EC50 [5]: 45.5 µM (active)

SMILES: Cc1cccn2c(=O)c3cc(C(=O)NC4CCCC4)c(=N)n(C4CCCCC4)c3nc12
- EC50 [6]: > 91.2 µM (inactive)
- IC50 [7]: > 100 µM (inactive)
- IC50 [8]: 0.469 µM (active)
- EC50 [9]: > 91.2 µM (inactive)
